Entries after “also recorded” stand apart in the source; their conditions may differ.
What was measured:
[1] = tested on: XPD mRNA; test: XPD activation: relative expression of XPD mRNA in keratinocytes (TaqMan RT-PCR); format: cell-based, human; details: keratinocytes (NHK), 10 ppm, 37° C. 24 hours, control = 1.0
Procedure: (§1) Experiment was conducted using normal human keratinocytes (NHK) and normal human fibroblasts (NHF) to investigate the effect of a methylated catechin. Specifically, 2×10^5 NHFs (normal human fibroblasts) purchased from Lonza (Allendale, N.J., USA) were cultured on a 60-mm dish at 37° C. for 24 hours using DMEM. The medium was discarded and the cells were transferred to a new tissue culture flask. Also, NHEKs (normal human epidermal keratinocytes, corresponding to NHK) purchased from Lonza (Allendale, N.J., USA) were cultured using a keratinocyte growth medium (KGM-GOLD, Lonza, Allendale, N.J., USA). The cells were detached with 0.025% trypsin and transferred to a new tissue culture flask after subculturing.
(§2) Specifically, after treating the keratinocytes (NHK) and the fibroblasts (NHF) with each of retinol, green tea EGCG and green tea EGCG″3Me at 10 ppm, followed by incubation at 37° C. for 24 hours, total RNA was isolated from the cells and the relative expression of XPD mRNA was compared.
(§3) The total RNA was isolated using TRIzol™ (Invitrogen, Carlsbad, Calif., USA) according to the manufacturer's protocol. RNA concentration was measured spectrophotometrically and RNA integrity was measured using BioAnalyzer 2100 (Agilent Technologies, Santa Clara, Calif., USA). 4 μg of RNA was reverse transcribed to cDNA using SuperScript®III reverse transcriptase (Invitrogen, Carlsbad, Calif., USA). The cDNA was stored at −70° C. The expression level of the target gene was measured by quantitative real-time TaqMan RT-PCR (7500Fast, Applied Biosystems, Foster City, Calif., USA). The cycle condition was 10 minutes at 95° C., 50 cycles of […] at 95° C. and 1 minute at 60° C.

[2] = tested on: XPD mRNA; test: XPD activation: relative expression of XPD mRNA in fibroblasts (TaqMan RT-PCR); format: cell-based, human; details: fibroblasts (NHF), 10 ppm, 37° C. 24 hours, control = 1.0
Procedure: as §1, §2, §3

[3] = tested on: Klotho mRNA; test: Klotho activation: relative expression of Klotho mRNA in keratinocytes (TaqMan RT-PCR); format: cell-based, human; details: keratinocytes (NHK), 24 hours, control = 1.0
Procedure: as §1
(§4) Specifically, after treating the keratinocytes (NHK) and the fibroblasts (NHF) with each of retinol (10 ppm), green tea EGCG (1 and 10 ppm) and green tea EGCG″3Me (1 and 10 ppm), followed by incubation at 37° C. for 24 hours, total RNA was isolated from the cells and the relative expression of Klotho mRNA was compared.
as §3

[4] = tested on: Klotho mRNA; test: Klotho activation: relative expression of Klotho mRNA in fibroblasts (TaqMan RT-PCR); format: cell-based, human; details: fibroblasts (NHF), 24 hours, control = 1.0
Procedure: as §1, §4, §3

[5] = tested on: Sirt-1 mRNA; test: Sirt-1 activation: relative expression of Sirt-1 mRNA in keratinocytes (TaqMan RT-PCR); format: cell-based, human; details: keratinocytes (NHK), 10 ppm, 24 hours, control = 1.0
Procedure: as §1
(§5) Specifically, after treating the keratinocytes (NHK) and the fibroblasts (NHF) with each of retinol, green tea EGCG and green tea EGCG″3Me at 10 ppm, followed by incubation at 37° C. for 24 hours, total RNA was isolated from the cells and the relative expression of Sirt-1 mRNA was compared.
as §3

[6] = tested on: Sirt-1 mRNA; test: Sirt-1 activation: relative expression of Sirt-1 mRNA in fibroblasts (TaqMan RT-PCR); format: cell-based, human; details: fibroblasts (NHF), 10 ppm, 24 hours, control = 1.0
Procedure: as §1, §5, §3

[7] = tested on: ERCC8 mRNA; test: ERCC8 activation: relative expression of ERCC8 mRNA in keratinocytes (TaqMan RT-PCR); format: cell-based, human; details: keratinocytes (NHK), 10 ppm, 24 hours, control = 1.0
Procedure: as §1
(§6) Specifically, after treating the keratinocytes (NHK) and the fibroblasts (NHF) with each of retinol, green tea EGCG and green tea EGCG″3Me at 10 ppm, followed by incubation at 37° C. for 24 hours, total RNA was isolated from the cells and the relative expression of ERCC8 mRNA was compared.
as §3

[8] = tested on: ERCC8 mRNA; test: ERCC8 activation: relative expression of ERCC8 mRNA in fibroblasts (TaqMan RT-PCR); format: cell-based, human; details: fibroblasts (NHF), 10 ppm, 24 hours, control = 1.0
Procedure: as §1, §6, §3

[9] = tested on: Fox03 mRNA; test: FoxO3 activation: relative expression of Fox03 mRNA in keratinocytes (TaqMan RT-PCR); format: cell-based, human; details: keratinocytes (NHK), 10 ppm, 24 hours, control = 1.0
Procedure: as §1
(§7) Specifically, after treating the keratinocytes (NHK) and the fibroblasts (NHF) with each of retinol, green tea EGCG and green tea EGCG″3Me at 10 ppm, followed by incubation at 37° C. for 24 hours, total RNA was isolated from the cells and the relative expression of Fox03 mRNA was compared.
as §3

[10] = tested on: Fox03 mRNA; test: FoxO3 activation: relative expression of Fox03 mRNA in fibroblasts (TaqMan RT-PCR); format: cell-based, human; details: fibroblasts (NHF), 10 ppm, 24 hours, control = 1.0
Procedure: as §1, §7, §3

[11] = tested on: normal human epidermal keratinocytes (NHEKs); test: Evaluation of cellular differentiation of keratinocytes; format: cell-based; details: various concentrations, 48 hours, FIG. 1
Procedure: In order to investigate the effect of the methylated catechin on the differentiation of keratinocytes, normal human epidermal keratinocytes (NHEKs) were treated with EGCG″3Me and EGCG at various concentrations for 48 hours.

Molecule | relative expression of XPD mRNA [1] | relative expression of XPD mRNA [2] | relative expression of Klotho mRNA ([3]; 10 ppm) | relative expression of Klotho mRNA ([4]; 10 ppm) | relative expression of Sirt-1 mRNA [5] | relative expression of Sirt-1 mRNA [6] | relative expression of ERCC8 mRNA [7] | relative expression of ERCC8 mRNA [8] | relative expression of Fox03 mRNA [9] | relative expression of Fox03 mRNA [10] | relative expression of Klotho mRNA ([3]; 1 ppm) | relative expression of Klotho mRNA ([4]; 1 ppm) | differentiation of keratinocytes [11]
CC1=C(/C=C/C(C)=C/C=C/C(C)=C/CO)C(C)(C)CCC1 [Retinol] | 10.1 | 2.4 | 9.8 | 2.2 | 7.9 | 1.9 | 1.2 | 1.0 | 1.1 | 1.4 | – | – | –
epigallocatechin-3-O-(3-O-methyl)gallate [Green tea EGCG3″Me] | 21.4 | 6.9 | 10.5 | 2.1 | 17.1 | 4.3 | 4.3 | 5.1 | 3.2 | 5.3 | 4.2 | 1.7 | promoted the differentiation of the keratinocytes in a concentration-dependent manner; also recorded: superior differentiation of the keratinocytes at low concentration as compared to EGCG
O=C(O[C@@H]1Cc2c(O)cc(O)cc2O[C@@H]1c1cc(O)c(O)c(O)c1)c1cc(O)c(O)c(O)c1 [Green tea EGCG, epigallocatechin gallate] | 9.2 | 2.8 | 10.2 | 1.8 | 8.2 | 2.0 | 1.9 | 2.3 | 1.4 | 2.1 | 2.5 | 1.2 | –
